Activity calls are given as the source filed them.
Experiments:
Assay type in all cases: functional
Genome polyprotein = Genome polyprotein (dengue virus type 2, UniProt P29990); experiment: Dengue-2 NS5 methyltransferase inhibitors, primary screen, biochemical, confirmation dose response (AID 588689)
Protein RecA = biological target: T1, Protein RecA (Mycobacterium tuberculosis, UniProt P9WHJ3); experiment: Fluorescence Cell-Free Homogeneous Dose Retest to Identify Inhibitors of RecA-Intein Splicing Activity. [Related pubchem assays (depositor defined):AID2097, AID2223, AID489010, AID492950]
T1 sequence (P9WHJ3 whole entry): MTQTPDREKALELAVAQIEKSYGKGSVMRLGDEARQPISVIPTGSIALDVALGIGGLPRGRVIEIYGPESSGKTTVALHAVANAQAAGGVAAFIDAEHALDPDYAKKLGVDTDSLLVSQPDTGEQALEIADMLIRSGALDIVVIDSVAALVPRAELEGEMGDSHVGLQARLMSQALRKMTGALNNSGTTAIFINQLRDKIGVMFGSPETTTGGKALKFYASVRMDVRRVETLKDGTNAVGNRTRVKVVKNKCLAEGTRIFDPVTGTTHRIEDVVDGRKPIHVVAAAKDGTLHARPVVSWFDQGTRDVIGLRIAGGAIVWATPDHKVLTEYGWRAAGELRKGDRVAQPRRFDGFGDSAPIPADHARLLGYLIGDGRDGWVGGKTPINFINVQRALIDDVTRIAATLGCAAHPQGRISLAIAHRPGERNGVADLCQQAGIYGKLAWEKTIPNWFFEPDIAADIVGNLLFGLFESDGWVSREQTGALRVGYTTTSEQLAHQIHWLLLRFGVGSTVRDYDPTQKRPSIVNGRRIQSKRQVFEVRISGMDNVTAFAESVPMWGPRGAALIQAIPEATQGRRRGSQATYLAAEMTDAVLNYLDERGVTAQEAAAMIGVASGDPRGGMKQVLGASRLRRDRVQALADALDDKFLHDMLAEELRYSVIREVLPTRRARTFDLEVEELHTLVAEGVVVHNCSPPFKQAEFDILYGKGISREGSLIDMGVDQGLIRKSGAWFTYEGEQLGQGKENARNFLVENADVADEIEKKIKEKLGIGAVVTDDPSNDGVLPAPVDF

[1] = biological target: T2, Replicative DNA helicase DnaB (Mycobacterium tuberculosis, UniProt P9WMR3); experiment: DnaB intein splicing inhibitors, dose response, biochemical, cell-free fluorescence (AID 449749)
T2 sequence (P9WMR3 whole entry): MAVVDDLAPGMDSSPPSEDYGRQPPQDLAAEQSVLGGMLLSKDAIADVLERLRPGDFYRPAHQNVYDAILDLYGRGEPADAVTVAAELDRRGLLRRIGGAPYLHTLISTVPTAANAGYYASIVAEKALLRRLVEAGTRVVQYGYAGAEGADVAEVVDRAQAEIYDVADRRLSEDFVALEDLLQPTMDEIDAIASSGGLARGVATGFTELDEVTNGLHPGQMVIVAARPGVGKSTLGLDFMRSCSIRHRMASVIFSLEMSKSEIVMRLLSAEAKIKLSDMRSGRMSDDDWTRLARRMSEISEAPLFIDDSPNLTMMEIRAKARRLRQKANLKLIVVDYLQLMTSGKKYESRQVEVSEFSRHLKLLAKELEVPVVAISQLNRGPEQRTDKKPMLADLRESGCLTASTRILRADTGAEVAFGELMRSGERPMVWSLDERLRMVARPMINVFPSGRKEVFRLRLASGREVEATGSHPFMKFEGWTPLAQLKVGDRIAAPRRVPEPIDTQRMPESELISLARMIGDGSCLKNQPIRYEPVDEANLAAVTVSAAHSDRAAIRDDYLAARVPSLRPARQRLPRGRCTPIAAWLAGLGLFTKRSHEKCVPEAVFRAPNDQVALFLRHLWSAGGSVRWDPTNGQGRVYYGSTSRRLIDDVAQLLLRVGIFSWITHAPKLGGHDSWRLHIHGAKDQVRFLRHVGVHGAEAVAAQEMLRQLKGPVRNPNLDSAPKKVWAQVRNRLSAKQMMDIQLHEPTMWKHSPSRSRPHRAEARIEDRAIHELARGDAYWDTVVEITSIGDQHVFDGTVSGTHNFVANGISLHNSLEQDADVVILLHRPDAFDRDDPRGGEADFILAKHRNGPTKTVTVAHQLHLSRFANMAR

Chain of Genome polyprotein (P29990 2492-3391 limits assumed): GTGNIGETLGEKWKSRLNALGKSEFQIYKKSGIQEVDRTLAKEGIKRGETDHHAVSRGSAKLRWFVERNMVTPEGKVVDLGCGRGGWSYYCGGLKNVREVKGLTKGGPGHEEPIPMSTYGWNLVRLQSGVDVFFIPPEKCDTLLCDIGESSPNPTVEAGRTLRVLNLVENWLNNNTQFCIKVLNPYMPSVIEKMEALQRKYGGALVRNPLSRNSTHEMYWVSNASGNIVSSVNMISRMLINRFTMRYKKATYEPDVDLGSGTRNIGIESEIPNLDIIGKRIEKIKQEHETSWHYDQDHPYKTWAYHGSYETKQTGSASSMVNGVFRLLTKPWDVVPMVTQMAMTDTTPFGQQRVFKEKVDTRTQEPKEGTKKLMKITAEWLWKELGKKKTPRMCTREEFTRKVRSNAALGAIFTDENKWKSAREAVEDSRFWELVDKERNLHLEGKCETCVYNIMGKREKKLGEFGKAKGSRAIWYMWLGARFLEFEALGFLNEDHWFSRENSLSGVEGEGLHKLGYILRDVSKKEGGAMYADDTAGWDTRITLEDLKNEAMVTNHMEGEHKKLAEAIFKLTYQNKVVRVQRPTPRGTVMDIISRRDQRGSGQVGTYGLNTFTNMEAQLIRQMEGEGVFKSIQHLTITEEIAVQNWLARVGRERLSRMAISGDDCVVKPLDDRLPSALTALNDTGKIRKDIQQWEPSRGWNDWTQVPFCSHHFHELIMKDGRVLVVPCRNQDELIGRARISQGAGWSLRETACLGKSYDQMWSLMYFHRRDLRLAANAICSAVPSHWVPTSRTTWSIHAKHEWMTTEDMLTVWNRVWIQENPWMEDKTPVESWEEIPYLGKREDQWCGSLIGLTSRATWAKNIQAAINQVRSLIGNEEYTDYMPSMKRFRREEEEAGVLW

Compound | IC50 (Genome polyprotein) | EC50 (Protein RecA) | AC50 [1]
CCOC(=O)CC1=NN(c2ccccc2)C(=O)/C1=C\c1ccc(OC)cc1OC | 27.1 µM (active) | 0.104 µM (active) | 0.805 µM (active)
COc1ccc(Cl)cc1/C=C1/C(=O)ON=C1C | > 100 µM (active) | – | –
CC1=NN(c2ccccc2)C(=O)C1=Cc1ccccc1 | 59.4 µM (active) | – | –

Source: ChEMBL document CHEMBL1201862, “PubChem BioAssay data set” (2004)
